These are literature values, as cited in PMC13231908, “Evaluating acridones as novel therapeutics for human babesiosis” (Antimicrobial Agents and Chemotherapy, 2026).

Structures are written as SMILES.

For this data set the following is noted: mouse, in vivo, po, 80 mg/kg.

As for `O=c1c2ccc(Oc3ccc(OC(F)(F)F)cc3)cc2[nH]c2cc(Cl)cc(F)c12` [T111], the AUCinf is […].

On to `O=c1c2cc(F)c(Oc3ccc(OC(F)(F)F)cc3)cc2[nH]c2cc(Cl)cc(F)c12` [T226], for which the AUCinf is 95.7 ng·h/mL and the AUClast was 33.9 ng·h/mL.
